# Source: patent US8404687B2, “Disubstituted phthalazine hedgehog pathway antagonists” (Eli Lilly and Company, priority 2008, dated 2013)
# Structures can show the parent of a compound that is named as a salt.
# Target: T1, CYP3A4 (Homo sapiens, UniProt P08684)
# T1 construct: from tissue; host or cells: human liver microsomes
# Experiment: CYP3A4 Inhibition Assay
# Type: in vitro ADME
# Settings: liver microsomes, pH 7.4, probe midazolam (5 μM; formation of 1-OH-midazolam), human liver microsomal preparation, 10 μM inhibitor, 5 μM midazolam substrate
# Description: Incubation samples are prepared by adding a human liver microsomal preparation to the test inhibitor (final concentrations 0.05 mg/mL protein, 10 μM inhibitor in 100 mM NaPO4, pH 7.4 buffer) and mixed. Samples are pre-incubated for approximately five minutes at 37° C. Following the pre-incubation period, the reaction is initiated with the addition of a solution containing NADPH and midazolam, as the enzyme substrate, (final concentration 1 mM NADPH, 5 μM midazolam). After addition of the NADPH solution, the samples are incubated for 3 min at approximately 37° C. Following the incubation period, the reaction is quenched by the addition of 50 μL of methanol (and an internal standard for chromatography) and the samples are mixed well. After quenching the reaction, the mixture is centrifuged at approximately 4000 rpm for 15 min at approximately 5° C. and analyzed by LC/MS analysis.
# Samples are analyzed using HPLC/MS with gradient elution on short conventional C18 columns, (Loading Mobile Phase—95/5 Milli-Q H2O/methanol (v/v) with 1% acetic acid. Mobile Phase B—80/20 Milli-Q H2O/methanol (v/v) with 1% acetic acid. Mobile Phase C—5/95 Milli-Q H2O/methanol (v/v) with 1% acetic acid. Rinsing Mobile Phase—75/25 Milli-Q H2O/acetonitrile (v/v).
# The samples are injected into a Mass Spectral Analyzer for Selected Ion Monitoring (SIM) at a mass of 342.1 (1-OH-midazolam) and 346.1 (α-hydroxymidazolam-d4 internal standard) using Turbolon Spray under positive conditions. Data are reported as % inhibition of the formation of 1-OH-midazolam in the presence of an inhibitor concentration of 10 μM.
# T1 sequence (P08684 whole entry): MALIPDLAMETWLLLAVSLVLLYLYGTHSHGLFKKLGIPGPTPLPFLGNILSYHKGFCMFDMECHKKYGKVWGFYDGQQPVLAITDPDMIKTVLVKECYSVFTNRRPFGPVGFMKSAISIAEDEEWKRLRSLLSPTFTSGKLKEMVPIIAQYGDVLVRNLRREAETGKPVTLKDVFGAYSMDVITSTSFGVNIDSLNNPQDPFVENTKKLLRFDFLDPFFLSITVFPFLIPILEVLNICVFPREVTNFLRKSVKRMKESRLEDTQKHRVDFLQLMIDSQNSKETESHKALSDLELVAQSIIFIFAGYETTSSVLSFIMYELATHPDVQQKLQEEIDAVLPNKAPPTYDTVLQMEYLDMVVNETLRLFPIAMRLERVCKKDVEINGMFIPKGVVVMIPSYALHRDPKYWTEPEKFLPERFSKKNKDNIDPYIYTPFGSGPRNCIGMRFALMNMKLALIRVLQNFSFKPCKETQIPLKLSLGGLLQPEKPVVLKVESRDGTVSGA
row,SMILES,"inhibition at 3 min, 10 μM [%]"
1,"CC1CN(C(=O)Nc2ccc(OC(F)(F)F)cc2)CCN1c1nnc(-c2ccc(F)cc2)c2ccccc12 (racemic) [Example 6, (±)-4-(4-(4-Fluorophenyl)phthalazin-1-yl)-3-methyl-N-(4-(trifluoromethoxy)phenyl)piperazine-1-carboxamide hydrochloride]",< 45
2,"C[C@H]1CN(c2nnc(-c3ccc(F)cc3)c3ccccc23)CCN1C(=O)Nc1ccc(F)cc1C(F)(F)F [Example 18, (S)-N-(4-Fluoro-2-(trifluoromethyl)phenyl)-4-(4-(4-fluorophenyl)phthalazin-1-yl)-2-methylpiperazine-1-carboxamide hydrochloride]",< 45
3,"C[C@H]1CN(c2nnc(-c3ccc(C#N)cc3)c3ccccc23)CCN1C(=O)Nc1ccc(F)cc1F [Example 26, (S)-4-(4-(4-Cyanophenyl)phthalazin-1-yl)-N-(2,4-difluorophenyl)-2-methylpiperazine-1-carboxamide hydrochloride]",< 45
4,"C[C@H]1CN(c2nnc(-c3ccc(C(F)(F)F)cc3)c3ccccc23)CCN1C(=O)Nc1ccc(F)cc1 [Example 45, (S)-N-(4-Fluorophenyl)-2-methyl-4-(4-(4-(trifluoromethyl)phenyl)phthalazin-1-yl)piperazine-1-carboxamide hydrochloride]",< 45
5,"C[C@H]1CN(c2nnc(-c3ccc(C(F)(F)F)cc3)c3ccccc23)CCN1C(=O)Nc1ccc(F)cc1F [Example 47, (S)-N-(2,4-Difluorophenyl)-2-methyl-4-(4-(4-(trifluoromethyl)phenyl)phthalazin-1-yl)piperazine-1-carboxamide hydrochloride]",< 45
6,"C[C@H]1CN(C(=O)Nc2ccc(OC(F)(F)F)cc2)CCN1c1nnc(-c2ccc(F)cc2)c2ccccc12 [Example 48, (S)-4-(4-(4-Fluorophenyl)phthalazin-1-yl)-3-methyl-N-(4-(trifluoromethoxy)phenyl)piperazine-1-carboxamide hydrochloride]",< 45
7,"C[C@H]1CN(C(=O)Nc2ccc(F)cc2C(F)(F)F)CCN1c1nnc(-c2ccc(C#N)cc2)c2ccccc12 [Example 60, (S)-4-(4-(4-Cyanophenyl)phthalazin-1-yl)-N-(4-fluoro-2-(trifluoromethyl)phenyl)-3-methylpiperazine-1-carboxamide hydrochloride]",< 45
8,"C[C@H]1CN(C(=O)Nc2ccc(F)cc2C(F)(F)F)CCN1c1nnc(-c2ccccc2)c2ccccc12 [Example 69, (S)-N-(4-Fluoro-2-(trifluoromethyl)phenyl)-3-methyl-4-(4-phenylphthalazin-1-yl)piperazine-1-carboxamide hydrochloride]",< 45
9,"CC[C@H]1CN(c2nnc(-c3ccc(F)cc3)c3ccccc23)CCN1C(=O)Nc1ccc(F)cc1F [Example 86, (S)-N-(2,4-Difluorophenyl)-2-ethyl-4-(4-(4-fluorophenyl)phthalazin-1-yl)piperazine-1-carboxamide hydrochloride]",< 45
10,"CC[C@H]1CN(c2nnc(-c3ccc(F)cc3)c3ccccc23)CCN1C(=O)Nc1ccc(F)cc1C(F)(F)F [Example 87, (S)-2-Ethyl-N-(4-fluoro-2-(trifluoromethyl)phenyl)-4-(4-(4-fluorophenyl)phthalazin-1-yl)piperazine-1-carboxamide hydrochloride]",< 45
11,"CC[C@H]1CN(c2nnc(-c3ccc(F)cc3)c3ccccc23)CCN1C(=O)Nc1ccc(F)cc1 [Example 88, (S)-2-Ethyl-N-(4-fluorophenyl)-4-(4-(4-fluorophenyl)phthalazin-1-yl)piperazine-1-carboxamide hydrochloride]",< 45

# System: Gli1 transcript in Daoy cells stimulated with Shh conditioned media
# Experiment: Functional assay for measuring the inhibition of Gli1 in Daoy cells (bDNA)
# Type: cell-based
# Settings: Homo sapiens; Daoy cells treated with Shh-CM, 24 hours incubation with compound, Gli1 transcript by bDNA luminescence
# Description: Biological activity is determined using a functional assay in Daoy neuronal cancer cells and measures levels of Gli1 ribonucleic acid via a bDNA (branched deoxyribonucleic acid) assay system (Panomics, Inc., Fremont, Calif.). Gli was originally discovered in a Glioblastoma cell line and encodes a zinc finger protein that is activated by Shh signaling. The maximum response is obtained by inducing Gli1 transcription in the Daoy cells with conditioned medium (human embryonic kidney, HEK-293 cells stably expressing recombinant Shh) for 24 hours and then measuring the amount of stimulated Gli1 transcript. […]
# The bDNA assay system utilizes the technology of branched-chain DNA to allow amplification of a target ribonucleic acid (transcript). […] The addition of a chemilumigenic substrate during the amplification step allows for detection using luminescence. […]
# Daoy cells are grown to confluency in tissue culture T225-flasks in Daoy growth media containing Minimum Essential Medium (MEM) plus 10% Fetal Bovine Serum (FBS) with […] non-essential amino acids and 1 mM sodium pyruvate. The cells are removed from the T225-flasks using trypsin ethylenediaminetetraacetic acid (EDTA), centrifuged, resuspended in media, and then counted. […]
row,SMILES,IC50 [nM]
1,"C[C@H]1CN(C(=O)Nc2ccc(F)cc2)CCN1c1nnc(-c2ccc(F)cc2)c2ccccc12 [Example 2, (S)—N-(4-Fluorophenyl)-4-(4-(4-fluorophenyl)phthalazin-1-yl)-3-methylpiperazine-1-carboxamide hydrochloride]",~0.42
